Test results reported in patent publication US20240101602A1, “ANTIMICROBIAL PEPTIDES AND METHOD OF PREVENTING OR TREATING INFECTION BY USING THE SAME” (priority 2020, published 2024).

Experiments:
[1] = tested on: Staphylococcus epidermidis ATCC 14990
[2] = tested on: Pseudomonas syringae pv. tomato strain DC3000
[3] = tested on: Xanthomonas euvesicatoria strain Xvt28; assay: MIC and MBC by serial dilution in 96-well plate; assay type: cell-based; conditions: Xev Xvt28; Table 7
Method: (§1) The effect of peptide length on the antimicrobial activity was investigated by deciding the minimal inhibitory concentration (MIC) and minimal bactericidal concentration (MBC) for each peptide against the pathogen with the media and growth conditions of phytopathogenic bacteria and E. coli as described in Table 1. Single bacterial colony grown on an optimal rich agar medium was picked, and each grew in 3 mL of the same rich liquid medium for 4 to 6 h.
(§2) For experiments carried out in the rich medium, the bacterial broth culture was then diluted in the same medium to give a final concentration of OD600=0.08, and then further diluted 100 folds in the same medium.
(§3) For experiments carried out in the minimal medium, the bacterial cells were collected from the bacterial liquid culture by centrifugation, re-suspended in an optimal minimal medium to give a final concentration of OD600=0.08, and then further diluted 100 folds in the same minimal medium.
(§4) Fifty microliters of serially diluted peptides (2-fold the final concentration) were added in a 96-well polystyrene plate with 50 μL of the bacterial culture. The final concentrations of peptides were 0, 2, 4, 8, 16 and 32 μg/mL. The plates were incubated at an optimal temperature without shaking.
(§5) MBC was determined as the lowest peptide concentration at which no colonies formed.

[4] = tested on: Xanthomonas campestris pv. campestris strain Xcc17; assay: MIC and MBC by serial dilution in 96-well plate; assay type: cell-based; conditions: Xcc Xcc17; Table 7
Method: as §1, §2, §3, §4, §5

in vitro = assay type: cell-based; conditions: human, HEK293 cells
Method: PepD3 was dissolved in water and filtered through a 0.2-μm filter. The peptide concentration was quantitated by UV280 to make a stock solution of 5120 μg/mL. The pepD3 stock solution was serially diluted in the serum-free DMEM. […] The serum-free DMEM medium without peptide was used as negative control. Cell viability was assessed using the Cell Titer 96 Aqueous One Solution Cell Proliferation Assay (Promega), in accordance with the manufacturer's instructions. The absorbance was measured with an Infinite M1000 pro (Tecan) at a wavelength of 490 nm. Data were normalized to the negative control to obtain the percentage of cell viability.

[5] = tested on: Ralstonia solanacearum strain Pss4; conditions: Rs Pss4; optimal minimal medium, crude peptides (Table 9)
[6] = tested on: Staphylococcus aureus BCRC 10777
[7] = tested on: bacteria, fungal spores, and fungal mycelia; assay type: cell-based; conditions: SYTOX Green, crude peptides, room temperature in dark for 2 h
[8] = tested on: Agrobacterium tumefaciens strain Atu C58C1
[9] = tested on: Pseudomonas aeruginosa ATCC 9027; conditions: ATCC 9027
Erwinia chrysanthemi = assay type: cell-based
Procedure, shortened: (§6)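 Bacteria were grown 4–6 h, set to OD600=0.08 in rich or minimal medium, then diluted 100-fold. This inoculum was mixed 1:1 with 2-fold serial peptide dilutions and incubated static at optimal temperature. MIC was read from growth and MBC taken as the lowest concentration giving no colonies.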

[10] = tested on: Pectobacterium carotovorum subsp. carotovorum; assay type: cell-based
Procedure, shortened: as §6

red blood cells = assay type: cell-based, rat
Method: Further, the hemolytic activity of the antimicrobial peptides was tested. EDTA-treated rat whole blood was centrifuged at 840×g for 3 minutes at 4° C. to separate blood cells and plasma. The plasma was removed, and the blood cells were washed three times with PBS having the same volume as the original blood volume by gently turning the centrifuge tube upside down. After washing, ten microliters of blood cells were diluted in PBS 2000 times to count the cells. Finally, red blood cells were diluted to 5×10^8 cells/mL in PBS. Peptides were dissolved in water and filtered through a 0.2-μm filter to make a stock solution. The peptide concentration was quantitated by UV280. The peptide solution was diluted in PBS to different concentrations (5 times of tested concentration). Twenty microliters of peptide in PBS were mixed with 80 μL of red blood cell solution in a 96-well plate (V-bottom). […] The concentration of heme contained in each well was measured by UV405 using Infinite M1000 pro (Tecan). The hemolytic activity was calculated using the following formula: Hemolytic activity=[(F−F0)/(Ft−F0)]×100% • F is UV405 of the peptide-treated sample; • F0 is UV405 of sample without peptide (negative control); • Ft is UV405 of the Triton-treated sample (positive control).

What does the source list for Ac-WKKLKKLLKKL-NH2 [pepD3]?
MBC [1]: 32 µg/mL; MIC [1]: 16 µg/mL; MBC [2]: 17.3 µg/mL; MIC [2]: 9.3 µg/mL; MBC [3]: 3.0 µg/mL; MIC [3]: 3.0 µg/mL; MBC [4]: 2.0 µg/mL; MIC [4]: 2.0 µg/mL; viability at 1 h, 32 µg/mL (in vitro): > 91%; MBC/MFC [5]: — (“—” indicates no antimicrobial activity being detected at the highest peptide concentration (32 μg/mL) tested in this study.); MIC [5]: — (“—” indicates no antimicrobial activity being detected at the highest peptide concentration (32 μg/mL) tested in this study.); MBC [6]: 32 µg/mL; MIC [6]: 16 µg/mL; membranolytic effect on the cell walls of bacteria, fungal spores, and fungal mycelia [7]: significant membranolytic effect; MBC [8]: 2.4 µg/mL; MBC [9]: 8 µg/mL; MIC [9]: 4 µg/mL; MIC (Erwinia chrysanthemi): 32.0 µg/mL; MBC/MFC (Erwinia chrysanthemi; Ech, optimal minimal medium, crude peptides (Table 9)): — (“—” indicates no antimicrobial activity being detected at the highest peptide concentration (32 μg/mL) tested in this study.); MBC [10]: 14.3 µg/mL; MBC/MFC [10]: 13.3 µg/mL; hemolytic activity (red blood cells): very little or non-hemolytic activity
